Experimental data taken from PMC5477544, “Structural and mechanistic basis of differentiated inhibitors of the acute pancreatitis target kynurenine-3-monooxygenase” (Nature Communications, 2017).
Like-named read-outs stand apart in the source and are kept apart here. One block for each molecule: values may come before it.

Legend:
Format in all cases: biochemical
human KMO [1] = biological target: T1, human KMO (Homo sapiens, UniProt O15229); test: Rapidfire mass spectrometry IC50 assay, isolated human KMO
T1 construct: full-length human KMO was cloned as an N-terminal GST fusion; GST (N); made in house; host or cells: Sf9 insect cells, used as a membrane fraction
T1 sequence (O15229 whole entry, the tested form may be a part): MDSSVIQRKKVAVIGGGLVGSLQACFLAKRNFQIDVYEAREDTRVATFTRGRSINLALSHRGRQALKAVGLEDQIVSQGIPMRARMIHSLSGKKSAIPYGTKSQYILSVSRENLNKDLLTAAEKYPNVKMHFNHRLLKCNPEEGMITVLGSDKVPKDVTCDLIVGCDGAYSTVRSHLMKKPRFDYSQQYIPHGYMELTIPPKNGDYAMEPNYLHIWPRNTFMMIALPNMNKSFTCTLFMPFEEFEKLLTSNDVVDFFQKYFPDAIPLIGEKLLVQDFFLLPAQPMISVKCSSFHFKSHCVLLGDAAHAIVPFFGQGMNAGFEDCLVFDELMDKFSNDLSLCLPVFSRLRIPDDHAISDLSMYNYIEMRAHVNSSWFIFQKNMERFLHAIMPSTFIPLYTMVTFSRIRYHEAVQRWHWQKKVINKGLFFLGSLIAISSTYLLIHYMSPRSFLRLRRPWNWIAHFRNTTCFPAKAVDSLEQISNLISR
Method: For the expression and isolation of human KMO membranes, full-length human KMO was cloned as an N-terminal GST fusion, expressed in Sf9 cells and isolated as a membrane fraction as described in Lowe et al.[12]
(§1) Inhibitor IC50 values against isolated human KMO were determined using a Rapidfire mass spectrometry assay as described in Lowe et al.[12] utilizing the Sf9 cell expressed human KMO described above. The inhibitor IC50 values against Pf-KMO were determined using an analogous Rapidfire mass spectrometry assay, utilizing the purified protein described above.

Pf KMO [2] = biological target: T2, Pf KMO (Pseudomonas fluorescens, UniProt Q84HF5, C252S/C461S); test: Rapidfire mass spectrometry IC50 assay, Pf-KMO; conditions: from inhibition curves of Fig. 3b; [Pf-KMO]=1 nM, [L-Kyn]=10 μM, [NADPH]=200 μM
T2 construct: Success was made possible by the use of a full-length P. fluorescens orthologue; made in house; host or cells: Escherichia coli BL21 (DE3)
T2 sequence (Q84HF5 whole entry C252S/C461S): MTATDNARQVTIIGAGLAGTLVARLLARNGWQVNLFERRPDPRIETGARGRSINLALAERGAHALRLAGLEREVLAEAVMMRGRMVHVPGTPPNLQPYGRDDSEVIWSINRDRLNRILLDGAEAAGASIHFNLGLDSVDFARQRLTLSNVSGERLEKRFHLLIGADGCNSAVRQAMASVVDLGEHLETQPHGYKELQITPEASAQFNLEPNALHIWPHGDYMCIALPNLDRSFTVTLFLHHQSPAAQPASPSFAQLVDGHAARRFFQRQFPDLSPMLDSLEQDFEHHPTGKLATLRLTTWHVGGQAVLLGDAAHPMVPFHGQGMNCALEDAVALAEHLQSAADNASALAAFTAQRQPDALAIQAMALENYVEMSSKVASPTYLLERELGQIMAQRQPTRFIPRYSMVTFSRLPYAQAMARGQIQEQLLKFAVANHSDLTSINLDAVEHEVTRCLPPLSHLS
Method: as §1

human KMO [3] = biological target: T1, human KMO; test: Association kinetics (onset of inhibition timecourses); design: steady-state rate Vs, onset of inhibition timecourse: unit not given here; conditions: for kobs, onset of inhibition: 200 μM NADPH, 10 μM L-Kyn; for kobs, onset of inhibition at sub-saturating NADPH: 10 nM GSK775(B2), regeneration system
Method: For the association kinetics assays, measurements were performed in a buffer of 50 mM Hepes pH 7.5, 2 mM DTT, 1 mM EDTA, 0.1 mM Chaps. Reactions were performed at ambient temperature, by addition of human KMO enzyme to a mixture of L-Kyn and NADPH containing the test inhibitor. […] Aliquots of the mixtures were quenched into 0.5% TFA in water. L-Kyn and 3-HK levels in the quenched samples were measured using the Rapidfire mass spectrometry method described in Lowe et al.[12] Calibration curves for L-Kyn and 3-HK were used to correct for the lower detection response for 3-HK. Per cent turnover and resulting concentration of 3-HK were calculated for each time point in Excel. kobs values for onset of inhibition were obtained by fitting individual timecourses to equation 1 where t=time, vs=steady-state rate, vi=initial rate and c=background[43]. vi was fixed at the uninhibited rate obtained from the slope of the timecourse in the absence of inhibitor.

human KMO [4] = biological target: T1, human KMO; test: Dissociation kinetics (recovery of activity timecourses) and full kinetic analysis; design: steady-state rate Vs after equilibration of inhibitor binding, dissociation timecourse: unit not given here
Method: The dissociation kinetics measurements were performed in a buffer of 50 mM Hepes pH 7.5, 2 mM DTT, 1 mM EDTA, 0.1 mM Chaps. […] Aliquots of the reaction mixtures were quenched into 0.5% TFA in water. 3-HK levels in the quenched samples were measured using the Rapidfire mass spectrometry assay described in Lowe et al.[12] A calibration curve for 3-HK was used to convert the data to concentration of 3-HK at each time point. kobs values for recovery of activity were obtained by fitting individual timecourses to equation 1 with vi (initial rate) set to zero.
In this analysis, inhibitor kon was fixed at the value obtained in the association kinetic studies, and kcat and inhibitor koff were the two variable parameters.

human KMO [5] = biological target: T1, human KMO; test: Hydrogen peroxide formation, HRP/Amplex Red assay, human KMO
Method: (§2) Measurements were performed in a buffer of 50 mM Hepes pH 7.5, 0.1 mM Chaps. A two-fold dilution series of test inhibitor and control compounds was prepared from DMSO solutions using the Hewlett-Packard D300 digital dispenser in a 384-well plate and normalized to a final DMSO concentration of 1% in the assay. 10 μl of 80 μg ml^−1 human KMO or 40 nM Pf-KMO were added. After 15 min incubation, 10 μl of a substrate/detection mix (2 U ml^−1 HRP, 20 μM Amplex Red, 40 μM NADPH) were added and the plate was read kinetically on a Tecan M1000 fluorescent plate reader with excitation wavelength 530 nm and emission wavelength 580 nm. A calibration curve comprising a two-fold dilution series of resorufin from 20 μM top concentration was included on the plate, and used to convert assay data to concentration of resorufin formed. Initial rate (μM min^−1) was extracted by linear fitting of the early region of each timecourse. Dose responses were fitted to a four parameter logistic expression where appropriate.

Pf KMO [6] = biological target: T2, Pf KMO; test: Hydrogen peroxide formation, HRP/Amplex Red assay, Pf-KMO
Method: as §2

Pf KMO [7] = biological target: T2, Pf KMO; test: L-Kyn KM determination, Rapidfire mass spectrometry, Pf-KMO
Method: (§3) The KM of kynurenine for human KMO and for Pf KMO were measured as described in Lowe et al.[12]. The KM of NADPH for human KMO was measured using a regeneration system as described in Lowe et al.[12], with a kynurenine concentration of 10 μM.

human KMO [8] = biological target: T1, human KMO; test: NADPH KM determination with regeneration system, human KMO; conditions: 10 M Kynurenine (so in the source)
Method: as §3

[9] = from inhibition curves of Fig. 3b, read-out: IC50 Human KMO

mean slope of inhibition curve (human KMO [1]; human enzyme): 1.9
Structure (SMILES): C[C@@H](Oc1cc2onc(CCC(=O)O)c2cc1Cl)c1ccccn1 [GSK065]

Structure (SMILES): Cc1ccc([C@@H](C)Oc2cc3onc(CCC(=O)O)c3cc2Cl)nn1 [GSK366]
IC50 (human KMO [1]; [9]): 2.3 nM | mean slope of inhibition curve (human KMO [1]; human enzyme): 1.9 | IC50 (human KMO [1]; human enzyme, mean of n determinations given in text, read-out: IC50 (mean potency, in vitro activity)): 2 nM | IC50 (Pf KMO [2]): 0.7 nM | kobs, onset of inhibition (human KMO [3]; 5 nM inhibitor): 0.031 min⁻¹

Structure (SMILES): Cc1cc2oc(=O)n(CCC(=O)O)c2cc1Cl [GSK428]
IC50 (human KMO [1]; [9]): 10 nM | Effect of [L-Kyn] on IC50 (mode of inhibition) (human KMO [1]; human KMO): linear relationship | IC50 (Pf KMO [2]): 60 nM | steady-state rate Vs, onset of inhibition timecourse (human KMO [3]; 10 nM GSK428(A2), last 5 minutes of timecourse, uninhibited Vi = 0.022): 0.004 | steady-state rate Vs after equilibration of inhibitor binding, dissociation timecourse (human KMO [4]; last 5 minutes of timecourse in presence of GSK428(A2)): 0.147 | Generation of hydrogen peroxide (human KMO [5]): stimulate peroxide (H2O2) production | Generation of hydrogen peroxide (Pf KMO [6]): stimulate peroxide (H2O2) production

kobs, onset of inhibition at sub-saturating NADPH (human KMO [3]; 1 uM NADPH): 0.035 min⁻¹ | kobs, onset of inhibition at sub-saturating NADPH (human KMO [3]; 0.3 M NADPH (so in the source)): 0.013 min⁻¹ | kobs, onset of inhibition at sub-saturating NADPH (human KMO [3]; 5 M NADPH (so in the source)): 0.069 min⁻¹ | kobs, onset of inhibition (human KMO [3]; 10 nM inhibitor): 0.062 min⁻¹ | onset kobs, times slower than for GSK428(A2) (human KMO [3]; same concentration conditions): at least 10 times | dissociation half life of KMO-inhibitor complex (human KMO [4]; human KMO): ~2 h
Structure (SMILES): C[C@@H](Oc1cc2oc(=O)n(CCC(=O)O)c2cc1Cl)c1ccccn1 [GSK775]

Structure (SMILES): O=C(O)CCn1c(=O)oc2cc(OCc3ccccn3)c(Cl)cc21 [GSK891]
IC50 (human KMO [1]; [9]): 3.6 nM | IC50 (Pf KMO [2]): 4.3 nM

Structure (SMILES): Nc1ccccc1C(=O)CC(N)C(=O)O [L-Kyn, L-kynurenine]
kcat (Pf KMO [7]; 200 μM NADPH): 2.3 s⁻¹ | Km (Pf KMO [7]; read-out: L-Kyn KM, 200 μM NADPH): 7 µM

Km (human KMO [8]): 1 µM
Structure (SMILES): NC(=O)C1=CN([C@@H]2O[C@H](COP(=O)(O)OP(=O)(O)OC[C@H]3O[C@@H](n4cnc5c(N)ncnc54)[C@H](OP(=O)(O)O)[C@@H]3O)[C@@H](O)[C@H]2O)C=CC1 [NADPH]
